Key:
[1] = test system: COLO 205; assay: Antiproliferative activity against human COLO 205 cells measured after 96 hrs by CellTiter 96 Aqueous One Solution Reagent based assay; type: functional
[2] = Drug level in tumor of human Huh-7 cells xenografted SCID mouse at 10 mg/kg, iv measured after 12 hrs by LC-MS/MS analysis; type: ADME, organism-based, Neoplasm; conditions: read-out: Drug uptake
[3] = Toxicity in Sprague-Dawley rat assessed as convulsion up to 60 mg/kg, po administered as single dose; type: organism-based; conditions: in vivo
[4] = test system: Huh-7; assay: Antitumor activity against human Huh-7 cells xenografted in SCID mouse assessed as tumor growth at 50 mg/kg, po administered twice daily for 28 days measured post last dose relative to control; type: functional; conditions: time 28 day
[5] = Toxicity in Sprague-Dawley rat assessed as lethargy up to 60 mg/kg, po administered as single dose; type: organism-based; conditions: in vivo
[6] = test system: U2OS; assay: Antiproliferative activity against human U2OS cells measured after 96 hrs by CellTiter 96 Aqueous One Solution Reagent based assay; type: functional
[7] = Ratio of drug level in tumor to plasma of human Huh-7 cells xenografted SCID mouse at 10 mg/kg, iv measured after 4 hrs by LC-MS/MS analysis; type: ADME, organism-based; conditions: tumour
[8] = test system: HeLa; assay: Antiproliferative activity against human HeLa cells measured after 96 hrs by CellTiter 96 Aqueous One Solution Reagent based assay; type: functional, cell-based
[9] = Toxicity in Sprague-Dawley rat assessed as tremor up to 60 mg/kg, po administered as single dose; type: organism-based; conditions: in vivo
[10] = test system: HeLa; assay: Cell cycle arrest in human HeLa cells assessed as accumulation at G1 phase at 1 uM measured after 24 hrs by propidium iodide staining based FACS analysis (reference value: 66.51%); type: functional
[11] = test system: U-937; assay: Antiproliferative activity against human U-937 cells measured after 96 hrs by CellTiter 96 Aqueous One Solution Reagent based assay; type: functional
[12] = test system: Huh-7; assay: Antitumor activity against human Huh-7 cells xenografted in SCID mouse assessed as tumor growth at 25 mg/kg, po administered once daily for 28 days measured post last dose relative to control; type: functional; conditions: time 28 day
[13] = Toxicity in Sprague-Dawley rat assessed as change in serum biochemistry at 60 mg/kg, po measured during 28 days; type: organism-based; conditions: in vivo, time 28 day
[14] = Drug level in tumor of human Huh-7 cells xenografted SCID mouse at 10 mg/kg, iv measured after 8 hrs by LC-MS/MS analysis; type: ADME, organism-based, Neoplasm; conditions: read-out: Drug uptake
[15] = Ratio of drug level in tumor to plasma of human Huh-7 cells xenografted SCID mouse at 10 mg/kg, iv measured after 8 hrs by LC-MS/MS analysis; type: ADME, organism-based; conditions: tumour
[16] = test system: MDA-MB-231; assay: Antiproliferative activity against human MDA-MB-231 cells measured after 96 hrs by CellTiter 96 Aqueous One Solution Reagent based assay; type: functional, cell-based; conditions: MDA-MB-231, 96 h
[17] = test system: HeLa; assay: Cell cycle arrest in human HeLa cells assessed as accumulation at S phase at 1 uM measured after 24 hrs by propidium iodide staining based FACS analysis (reference value: […]%); type: functional
[18] = Oral bioavailability in CD-1 mouse at 10 mg/kg administered as single dose via gavage by LC-MS/MS analysis; type: ADME, organism-based; conditions: in vivo
[19] = Toxicity in Sprague-Dawley rat assessed as effect on organ at 60 mg/kg, po measured during 28 days; type: organism-based; conditions: in vivo, time 28 day
[20] = test system: MDA-MB-468; assay: Induction of mitosis in human MDA-MB-468 cells assessed as mitotic abnormalities at 1 uM measured after 24 hrs by immunofluorescence staining based microscopic analysis (reference value: 23%); type: functional
[21] = Tmax in CD-1 mouse at 10 mg/kg, po administered as single dose via gavage by LC-MS/MS analysis; type: ADME, organism-based; conditions: in vivo
[22] = Toxicity in Sprague-Dawley rat assessed as change in touch response up to 60 mg/kg, po administered as single dose; type: organism-based; conditions: in vivo
[23] = test system: Huh-7; assay: Antitumor activity against human Huh-7 cells xenografted in SCID mouse assessed as tumor growth at […], po administered twice daily for 28 days measured post last dose relative to control; type: functional; conditions: time 28 day
[24] = Ratio of drug level in tumor to plasma of human Huh-7 cells xenografted SCID mouse at 10 mg/kg, iv measured after 12 hrs by LC-MS/MS analysis; type: ADME, organism-based; conditions: tumour
[25] = test system: HeLa; assay: Cell cycle arrest in human HeLa cells assessed as accumulation at G2/M phase at 1 uM measured after 24 hrs by propidium iodide staining based FACS analysis (reference value: 12.93%); type: functional
[26] = Toxicity in Sprague-Dawley rat assessed as effect on locomotor activity up to 60 mg/kg, po administered as single dose; type: organism-based; conditions: in vivo
[27] = test system: MDA-MB-468; assay: Induction of mitosis in human MDA-MB-468 cells assessed as mitotic abnormalities at 1 uM measured after 48 hrs by immunofluorescence staining based microscopic analysis (reference value: 23%); type: functional
[28] = Ratio of drug level in tumor to plasma of human MDA-MB-231 cells xenografted SCID mouse at 10 mg/kg, iv measured after 2 hrs by LC-MS/MS analysis; type: ADME, organism-based; conditions: tumour
[29] = Drug level in tumor of human Huh-7 cells xenografted SCID mouse at 10 mg/kg, iv measured after 1 hr by LC-MS/MS analysis; type: ADME, organism-based, Neoplasm; conditions: read-out: Drug uptake
[30] = AUC in CD-1 mouse at 10 mg/kg, po administered as single dose via gavage by LC-MS/MS analysis; type: ADME, organism-based; set-up: dose 10 mg/kg; conditions: in vivo
[31] = test system: MCF7; assay: Antitumor activity against human MCF7 cells xenografted in SCID mouse assessed as tumor growth at 50 mg/kg, po administered twice daily for 28 days measured post last dose relative to control; type: functional; conditions: time 28 day
[32] = test system: Huh-7; assay: Anticancer activity against human Huh-7 cells after 24 hrs by CellTiter 96 Aqueous One Solution Reagent based assay; type: functional
[33] = test system: K562; assay: Antiproliferative activity against human K562 cells measured after 96 hrs by CellTiter 96 Aqueous One Solution Reagent based assay; type: functional, cell-based; conditions: K562, 96 h
[34] = test system: MDA-MB-231; assay: Antitumor activity against human MDA-MB-231 cells xenografted in SCID mouse assessed as tumor growth at 25 mg/kg, po administered twice daily for 28 days measured post last dose relative to control; type: functional; conditions: time 28 day
[35] = Drug level in tumor of human Huh-7 cells xenografted SCID mouse at 10 mg/kg, iv measured after 24 hrs by LC-MS/MS analysis; type: ADME, organism-based, Neoplasm; conditions: read-out: Drug uptake
[36] = Toxicity in Sprague-Dawley rat assessed as restlessness up to 60 mg/kg, po administered as single dose; type: organism-based; conditions: in vivo
[37] = Drug level in tumor of human Huh-7 cells xenografted SCID mouse at 10 mg/kg, iv measured after 4 hrs by LC-MS/MS analysis; type: ADME, organism-based, Neoplasm; conditions: read-out: Drug uptake
[38] = test system: HeLa; assay: Cell cycle arrest in human HeLa cells assessed as accumulation at sub-G1 phase at 1 uM measured after 24 hrs by propidium iodide staining based FACS analysis (reference value: 3.64%); type: functional
[39] = test system: MDA-MB-468; assay: Antiproliferative activity against human MDA-MB-468 cells measured after 96 hrs by CellTiter 96 Aqueous One Solution Reagent based assay; type: functional, cell-based; conditions: MDA-MB-468, 96 h
[40] = Toxicity in Beagle dog assessed as cardiopulmonary effect at 40 mg/kg, po administered as single dose; type: organism-based, Canis lupus familiaris; conditions: in vivo

COCCOc1cnc(Sc2cc(C)c(-c3csc(NC(=O)c4ccncc4)n3)c(C)c2)cn1
GI50 [1]: 29.1 nM
concentration at 12 h [2]: 507 nM
Activity [3]: Non-Toxic
T/C [4]: 18%
Activity [5]: Non-Toxic
GI50 [6]: 83.2 nM
Ratio [7]: 33.2%
IC50 [8]: 21.1 nM
Activity [9]: Non-Toxic
Activity [10]: 54.2%
GI50 [11]: 12.4 nM
T/C [12]: 25%
Activity [13]: Non-Toxic
concentration at 8 h [14]: 937 nM
Ratio [15]: 35%
IC50 [16]: 14.8 nM
Activity [17]: 15.07%
bioavailability [18]: 50.6%
Activity [19]: Non-Toxic
Activity [20]: 45%
Tmax [21]: 30 min
Activity [22]: Non-Toxic
T/C [23]: 61%
Ratio [24]: 60.5%
Activity [25]: 9.27%
Activity [26]: Non-Toxic
Activity [27]: 64%
Ratio [28]: 24.1%
concentration at 1 h [29]: 2660 nM
AUC [30]: 43.5 µM·h
T/C [31]: 52%
GI50 [32]: 59.9 nM
IC50 [33]: 18 nM
T/C [34]: 40%
concentration at 24 h [35]: 59.9 nM
Activity [36]: Non-Toxic
concentration at 4 h [37]: 2070 nM
Activity [38]: 20.44%
IC50 [39]: 21.5 nM
Activity [40]: Non-Toxic
